This is an account of results in the OligoGym collection.

“And” between values parts separate entries of the source, which are not always exact repeats. Equal values may be shown once. After the bases stand the sugars from the 5' end (letter, count) and the backbone: PS all phosphorothioate, else s phosphorothioate and o phosphodiester by linkage. Methylation of C is not given here. [mop] = methoxypropylphosphonate linkage; e = 2'-O-(2-methoxyethyl) (MOE); k = constrained ethyl (cEt); d = 2'-deoxy (DNA); m = 2'-O-methyl

For one data set, the target named is KRAS. Conditions: ASO.
For the next data set, the target named is IRF5. The note with it: ASO.

For the sequence AAAAAATTAATGTCTT (sugars k3 d10 k3, PS), the target mRNA inhibition with KRAS (A431, 2 µM) was determined as 9%.
Still for that read-out and setting: to AAAACAAATGCTAATA (sugars k3 d10 k3, PS) belongs 12%; to AAAATTAATGTCTTGG (sugars k3 d10 k3, PS), 12%; to AAATCTGAATTAGTCT (sugars k3 d10 k3, PS), 25%.
For the sequence AAATGCTAATAATTTA (sugars k3 d10 k3, PS), in the data set with KRAS (A431, 2 µM), the target mRNA inhibition turned out to be 13%.
For AAGATGGTGTAACATA (sugars k3 d10 k3, PS), the target mRNA inhibition in the data set with KRAS (A431, 2 µM) was 30%.
AATCTTATGGTTAGGG (sugars k3 d10 k3, PS): the target mRNA inhibition in the data set with KRAS (A431, 0.185 µM) is 2%; in the data set with KRAS (A431, 0.556 µM) it was 2%; in the data set with KRAS (A431, 1.667 µM) it was 35%; with KRAS (A431, 2 µM), 45%; with KRAS (A431, 5 µM), 52%.
As for AATCTTTTAATGTCAC (sugars k3 d10 k3, PS), the target mRNA inhibition with KRAS (A431, 2 µM) amounted to 44%.
In the data set with KRAS (A431, 2 µM), AATGCTAATAATTTAG (sugars k3 d10 k3, PS) displayed a target mRNA inhibition of 0%.
Still for that read-out and setting: under AATTAGTGATTAGGTC (sugars k3 d10 k3, PS) stands 32%; under AATTGTGCAATGGTGA (sugars k3 d10 k3, PS), 46%; under “ACCAGTGTTAAGAGAA (sugars k3 d9 k3 e1, PS)”, 44%.
Regarding ACCAGTGTTAAGAGAA (sugars k3 d10 k3, PS), the target mRNA inhibition with KRAS (A431, 0.185 µM) was 5% and 3%; in the data set with KRAS (A431, 0.556 µM) it was 39% and 19%; in the data set with KRAS (A431, 1.667 µM), 59% and 43%; with KRAS (A431, 2 µM), 60%; with KRAS (A431, 5 µM), 72% and 60%.
For “ACCAGTGTTAAGAGAA (sugars kddddddddddkekek, PS)”, in the data set with KRAS (A431, 2 µM), the target mRNA inhibition was found to be 44%.
The same measure, in the same setting: under “ACCAGTGTTAAGAGAA (sugars kkddddddddddkeke, PS)” stands 42%; under “ACCAGTGTTAAGAGAA (sugars kkdddddddddkekek, PS)”, 49%; under “ACCATTCAAAGTTCAC (sugars kddddddddddkekek, PS)”, 18%.
On the same count and under the same terms, to “ACCATTCAAAGTTCAC (sugars kkkdddddddddkeke, PS)” belongs 30%.
On the same count and under the same terms, to ACTCTCTATGAAAGCT (sugars k3 d10 k3, PS) belongs 29%; to ACTTTTTGACAAATGG (sugars k3 d10 k3, PS), 46%.
In turn, “AGATTGTGCTGAGCTT (sugars kkkddddddddkdkdk, PS)” registered a target mRNA inhibition in the data set with KRAS (A431, 2 µM) of 42%.
Same read-out and setting: to “AGGAGTCTTTATAGTA (sugars kddddddddddkekek, PS)” belongs 31%; to “AGGAGTCTTTATAGTA (sugars kkddddddddddkeke, PS)”, 40%.
In the case of “AGGAGTCTTTATAGTA (sugars kkkddddddddkdkdk, PS)”, the target mRNA inhibition with KRAS (A431, 2 µM) is 30%.
Regarding “AGGAGTCTTTATAGTA (sugars kkkddddddddkekek, PS)”, the target mRNA inhibition in the data set with KRAS (A431, 2 µM) is 22%.
In turn, AGTATTAACACAGAAG (sugars k3 d10 k3, PS) registered a target mRNA inhibition with KRAS (A431, 2 µM) of 27%.
The same measure, in the same setting: under AGTGATTAGGTCAAAT (sugars k3 d10 k3, PS) stands 23%; under “AGTGTGACTCAGTTAA (sugars kkkddddddddkekek, PS)”, 29%.
Regarding AGTGTTTATGCAATGT (sugars k3 d10 k3, PS), the target mRNA inhibition in the data set with KRAS (A431, 0.185 µM) is 27% and 9%; with KRAS (A431, 0.556 µM), 46% and 21%; with KRAS (A431, 1.667 µM) it was 65% and 46%; with KRAS (A431, 2 µM), 69% and 50%; in the data set with KRAS (A431, 5 µM) it was 83% and 67%.
With ATAGTTTCCATTGCCT (sugars k3 d10 k3, PS), the target mRNA inhibition with KRAS (A431, 1.667 µM) was 64% and 45%; in the data set with KRAS (A431, 2 µM) it was 50% and 65%; in the data set with KRAS (A431, 5 µM), 75% and 70%.
Consider ATCAACTGCATGCACC (sugars k3 d10 k3, PS), for which the target mRNA inhibition with KRAS (A431, 2 µM) amounted to 42%.
The sequence ATGCAATGTTAATTTA (sugars k3 d10 k3, PS) returned a target mRNA inhibition in the data set with KRAS (A431, 2 µM) of 9%.
Same read-out and setting: under “ATGCTGTGAAACTCTC (sugars k3 d9 k3 e1, PS)” stands 37%.
The same measure, in the same setting: under “ATGCTGTGAAACTCTC (sugars kdddddddddkekeke, PS)” stands 24%; under ATTAATCCATTTATGT (sugars k3 d10 k3, PS), 3%.
In the data set with KRAS (A431, 2 µM), ATTACTTATGCAGAGA (sugars k3 d10 k3, PS) gave a target mRNA inhibition of 60%.
On the same count and under the same terms, under “ATTGTGCTGAGCTTGA (sugars kddddddddddkekek, PS)” stands 34%.
Same read-out and setting: to “ATTGTGCTGAGCTTGA (sugars kkddddddddkekekk, PS)” belongs 31%; to ATTGTTTAAAAAAAAA (sugars k3 d10 k3, PS), 0%; to ATTTCTGATGTGACTC (sugars k3 d10 k3, PS), 49%.
Same read-out and setting: to ATTTGTCAGCAGGACC (sugars k3 d10 k3, PS) belongs 35%; to CAAATGCTAATAATTT (sugars k3 d10 k3, PS), 0%; to CAGTATTAACACAGAA (sugars k3 d10 k3, PS), 7%.
“CAGTGTGACTCAGTTA (sugars k3 d9 k3 e1, PS)” returned a target mRNA inhibition with KRAS (A431, 2 µM) of 42%.
On to “CAGTGTGACTCAGTTA (sugars kkddddddddkekekk, PS)”, for which the target mRNA inhibition with KRAS (A431, 0.185 µM) worked out at 0%; with KRAS (A431, 0.556 µM) it was 36%; with KRAS (A431, 1.667 µM), 58%; in the data set with KRAS (A431, 2 µM), 63%; with KRAS (A431, 5 µM), 67%.
Turning to CATGTAAATATAGCCC (sugars k3 d10 k3, PS), in the data set with KRAS (A431, 2 µM), the target mRNA inhibition worked out at 5%.
CATTGCTAGTTCAAAA (sugars k3 d10 k3, PS) registered a target mRNA inhibition with KRAS (A431, 2 µM) of 9%.
In the data set with KRAS (A431, 2 µM), CATTTATGTGACTAGA (sugars k3 d10 k3, PS) gave a target mRNA inhibition of 56%.
The sequence “CATTTATGTGACTAGA (sugars kkddddddddkekekk, PS)” showed a target mRNA inhibition with KRAS (A431, 2 µM) of 20%.
Sequence CCAGTATTAACACAGA (sugars k3 d10 k3, PS) came in with a target mRNA inhibition in the data set with KRAS (A431, 2 µM) of 37%.
For the sequence “CCAGTGATACTTTCAC (sugars kddddddddddkekek, PS)”, in the data set with KRAS (A431, 2 µM), the target mRNA inhibition worked out at 0%.
In the data set with KRAS (A431, 2 µM), “CCAGTGTTAAGAGAAC (sugars kkddddddddkekekk, PS)” yielded a target mRNA inhibition of 53%.
For the sequence “CCAGTGTTAAGAGAAC (sugars kkkddddddddkekek, PS)”, the target mRNA inhibition in the data set with KRAS (A431, 2 µM) came out at 37%.
Sequence CTATAATAATCCCCAT (sugars k3 d10 k3, PS) gave a target mRNA inhibition with KRAS (A431, 2 µM) of 6%.
Still for that read-out and setting: to CTATTCATACCAGGTT (sugars k3 d10 k3, PS) belongs 33%.
“TGTCACATCTCCACAT (sugars kddddddddddkekek, PS)” gave a target mRNA inhibition with IRF5 (KARPAS-229, 4 µM) of 16%.
As to “TGTCACATCTCCACAT (sugars kkddddddddkekekk, PS)”, the target mRNA inhibition in the data set with IRF5 (KARPAS-229, 4 µM) amounted to 0%.
With “TGTCTAGTGTCATGGA (sugars k2 d9 e3 k2, PS)”, the target mRNA inhibition is 0% and 4% with IRF5 (A-431, 0.00412 µM); 0% and 2% with IRF5 (A-431, 0.01225 µM); 24% and 28% in the data set with IRF5 (A-431, 0.03704 µM); 44% with IRF5 (A-431, 0.11111 µM); 59% and 60% with IRF5 (A-431, 0.33333 µM); 69% and 74% with IRF5 (A-431, 1 µM). Further, the target mRNA inhibition with IRF5 (KARPAS-229, 0.44444 µM) is 33%; with IRF5 (KARPAS-229, 1.33333 µM), 50%; with IRF5 (KARPAS-229, 4 µM), 60% and 57%; with IRF5 (KARPAS-229, 12 µM), 70%.
As to “TGTCTAGTGTCATGGA (sugars k2 d9 e3 k2, linkages s4 [mop]1 s10)”, the target mRNA inhibition in the data set with IRF5 (A-431, 0.00412 µM) was 2%; with IRF5 (A-431, 0.01225 µM), 11%; in the data set with IRF5 (A-431, 0.03704 µM), 4%; in the data set with IRF5 (A-431, 0.11111 µM) it was 8%; in the data set with IRF5 (A-431, 0.33333 µM), 18%; with IRF5 (A-431, 1 µM), 32%.
With TGTCTAGTGTCATGGA (sugars k3 d10 k3, PS), the target mRNA inhibition was 0% in the data set with IRF5 (KARPAS-229, 0.44444 µM); 42% with IRF5 (KARPAS-229, 1.33333 µM); 61% and 65% in the data set with IRF5 (KARPAS-229, 4 µM); 74% with IRF5 (KARPAS-229, 12 µM).
Consider “TGTCTAGTGTCATGGA (sugars kkdddddddddkekek, PS)”, for which, in the data set with IRF5 (KARPAS-229, 4 µM), the target mRNA inhibition worked out at 44%.
For “TGTCTAGTGTCATGGA (sugars kkdmdddddddeeekk, PS)”, the target mRNA inhibition with IRF5 (A-431, 0.00412 µM) worked out at 0%; with IRF5 (A-431, 0.01225 µM), 11%; with IRF5 (A-431, 0.03704 µM), 5%; in the data set with IRF5 (A-431, 0.11111 µM), 15%; in the data set with IRF5 (A-431, 0.33333 µM) it was 25%; in the data set with IRF5 (A-431, 1 µM), 33%.
Turning to “TTATCTCCGTCCTGGC (sugars k2 d8 e4 k2, PS)”, the target mRNA inhibition with IRF5 (KARPAS-229, 4 µM) was determined as 0%.
Still for that read-out and setting: to “TTATCTCCGTCCTGGC (sugars k2 d9 e3 k2, PS)” belongs 5%.
On the same count and under the same terms, to “TTATCTCCGTCCTGGC (sugars kkdddddddddkdkdk, PS)” belongs 14%; to “TTATTTCTGCTCCAGG (sugars kdddddddddkekeke, PS)”, 0%.
Turning to “TTATTTCTGCTCCAGG (sugars kekdddddddddeekk, PS)”, the target mRNA inhibition with IRF5 (KARPAS-229, 0.44444 µM) was 53%; with IRF5 (KARPAS-229, 1.33333 µM), 69%; with IRF5 (KARPAS-229, 4 µM), 56% and 80%; in the data set with IRF5 (KARPAS-229, 12 µM), 86%.
“TTCTGCAGGGAGTCAG (sugars kkddddddddkekekk, PS)” registered a target mRNA inhibition with IRF5 (KARPAS-229, 4 µM) of 0%.
The same measure, in the same setting: under “TTGTCTAGTGTCATGG (sugars kkddddddddkekekk, PS)” stands 0%; under “TTGTCTAGTGTCATGG (sugars kkkddddddddkekek, PS)”, 16%.
Sequence TTTTGTGACTGTATTA (sugars k3 d10 k3, PS) gave a target mRNA inhibition with IRF5 (KARPAS-229, 4 µM) of 2%.
